In patent US8288410B2, “3-substituted quinolinium and 7H-indolo[2,3-c]quinolinium salts as new antiinfectives” (Florida Agricultural and Mechanical University, priority 2008, dated 2012):
Where two headings read alike, the source gives them in different places.

Tests used:
MRSA = assay: Antibacterial susceptibility testing, MRSA; format: cell-based, methicillin resistant Staphylococcus aureus; conditions: for MRS IC50 / MRS MFC / MRS MIC: Table 1
Method: (§1) Using standard susceptibility tests, the compounds of the invention were determined to be active against MRSA, C. neoformans and several other bacteria, fungi and protozoa. More specifically, the antibacterial and antifungal testing was carried out in the following manner. Cryptococcus neoformans ATCC 90113 and MRSA were obtained from the American Type Culture Collection (Manassas. Va.). Several others including Candida albicans ATTC 90028, Aspergillus fumigatus ATCC 90906 and Mycobacterium intracellulare (M. intracellulare) ATCC 23086 were also procured. Susceptibility testing was performed using a modified version of the National Committee for Clinical Laboratory Standards method. M. intracellulare was tested using a modified method of Franzblau, et al., J. Clin. Microbiol., 1998, 36, 362-366. DMSO solutions of samples were serially diluted in saline, and transferred in duplicate to 96 well microplates. Microbial suspensions were diluted in the broth to afford desired colony forming units/mL according to the 0.5 McFarland Standard [C. Albicans: either Saboraud Dextrose broth (SDB) or RPMI 1640, C. neoformans: SDB, A fumigatus: either YM broth (for MICS) or RPMI-1640+5% Alamar Blue.] After adding microbial cultures to the sampled afforded a final volume of 200 μL and final test concentration starting with 20 μg/mL, plates were read prior to and after final incubation using either fluorescence at 544ex/590em (M intracellulare, A. fumigatus) using the Polarstar galaxy reader (Biotek Instruments, Vermont). Growth (saline only), solvent and blank (media only) controls were included on each test plate. Drug controls [Ciprofloxacin (ICN Biomedicals, Ohio) for bacteria and Amphotericin B (ICN Biomedicals, Ohio) for fungi] were included in each assay. Percent growth was calculated and plotted versus test concentration to afford IC50 (sample concentration that affords 50% inhibition or growth of the organism). The minimum inhibitory concentration (MIC) was determined by visually inspecting the plate, and is defined as the lowest test concentration that allows no detectable growth (for Almar Blue assays, no color change from blue to pink).

[1] = system: Aspergillus fumigatus ATCC 90906; assay: Antifungal susceptibility testing, Aspergillus fumigatus; format: cell-based
Method: as §1

[2] = system: Candida albicans ATTC 90028; assay: Antifungal susceptibility testing, Candida albicans; format: cell-based
Method: as §1

[3] = system: Cryptococcus neoformans ATCC 90113; assay: Antifungal susceptibility testing, Cryptococcus neoformans; format: cell-based
Method: as §1

Row | SMILES | MRS IC50 (MRSA) [µg/mL] | MRS MFC (MRSA) | MRS MIC (MRSA) [µg/mL] | A fu IC50 ([1]; Table 1, Aspergillus fumigatus) | A fu MFC ([1]; Table 1, Aspergillus fumigatus) | A fu MIC ([1]; Table 1, Aspergillus fumigatus) | Ca IC50 ([2]; Table 1) | Ca MFC ([2]; Table 1) | Ca MIC ([2]; Table 1) | Cn IC50 ([3]; Table 1) | Cn MFC ([3]; Table 1) | Cn MIC ([3]; Table 1) | also measured
1 | Brc1cccc(Sc2cc3ccccc3[n+](CCCCCc3ccccc3)c2)c1.[I-] [XYZ-III-87] | 2.0 | 20 µg/mL | 5.0 | 3.0 µg/mL | — ((-) = >20 μg/mL) | 10 µg/mL | — ((-) = >20 μg/mL) | — ((-) = >20 μg/mL) | — ((-) = >20 μg/mL) | 2.0 µg/mL | 20 µg/mL | 5.0 µg/mL | 
2 | Clc1ccccc1Sc1cc2ccccc2[n+](CCCCCc2ccccc2)c1.[I-] [XYZ-III-74] | 1.0 | 10 µg/mL | 2.5 | 0.70 µg/mL | — ((-) = >20 μg/mL) | 2.5 µg/mL | — ((-) = >20 μg/mL) | — ((-) = >20 μg/mL) | — ((-) = >20 μg/mL) | 2.0 µg/mL | 20 µg/mL | 5.0 µg/mL | 
3 | FC(F)(F)c1ccccc1Sc1cc2ccccc2[n+](CCCCCc2ccccc2)c1.[I-] [XYZ-IV-25] | 0.05 | 2.5 µg/mL | 0.16 | 0.03 µg/mL | 10 µg/mL | 0.08 µg/mL | 0.4 µg/mL | 2.5 µg/mL | 1.3 µg/mL | 0.06 µg/mL | 0.63 µg/mL | 0.16 µg/mL | 
4 | [I-].[O-][S+](c1cc2ccccc2[n+](CCCCCc2ccccc2)c1)c1ccccc1Cl (stereo not shown) [XYZ-V-9] | 0.75 | — ((-) = >20 μg/mL) | 2.5 | — ((-) = >20 μg/mL) | — ((-) = >20 μg/mL) | — ((-) = >20 μg/mL) | — ((-) = >20 μg/mL) | — ((-) = >20 μg/mL) | — ((-) = >20 μg/mL) | 10 µg/mL | — ((-) = >20 μg/mL) | 20 µg/mL | 
5 | Fc1ccc(Sc2cc3ccccc3[n+](CCCCCc3ccccc3)c2)cc1.[I-] [XYZ-III-63] | 5.5 | — ((-) = >20 μg/mL) | 10 |  | — ((-) = >20 μg/mL) |  | 20 µg/mL | — ((-) = >20 μg/mL) | — ((-) = >20 μg/mL) | 7.0 µg/mL | — ((-) = >20 μg/mL) | — ((-) = >20 μg/mL) | 
6 | c1ccc(Nc2cc3ccccc3[n+](CCCCCC3CCCCC3)c2)cc1 [JRE-3-19-1] |  |  |  |  |  |  |  |  |  |  |  |  | IC50 (MRSA; Staphylococcus aureus, Table 2, read-out: MRSA IC50): 0.85 µg/mL; MFC (MRSA; Staphylococcus aureus, Table 2, read-out: MRSA MFC): 6.3 µg/mL; MIC (MRSA; Staphylococcus aureus, Table 2, read-out: MRSA MIC): 1.6 µg/mL; A fu MFC [1]: 25 µg/mL; A fu MIC [1]: 1.6 µg/mL; IC50 ([1]; ATCC90906, Table 2, Aspergillus fumigatus, read-out: A fu IC50): 1 µg/mL; IC50 ([2]; ATTC90028, Table 2, read-out: Ca IC50): 1 µg/mL; MFC ([2]; ATTC90028, Table 2, read-out: Ca MFC): 13 µg/mL; MIC ([2]; ATTC90028, Table 2, read-out: Ca MIC): 3.1 µg/mL; IC50 ([3]; ATCC90113, Table 2, read-out: Cn IC50): 0.55 µg/mL; MFC ([3]; ATCC90113, Table 2, read-out: Cn MFC): 6.3 µg/mL; MIC ([3]; ATCC90113, Table 2, read-out: Cn MIC): 0.78 µg/mL
7 | [I-].[O-][S+](c1cc2ccccc2[n+](CCCCCc2ccccc2)c1)c1ccccc1C(F)(F)F (stereo not shown) [XYZ-IV-90] | 0.25 | 10 µg/mL | 0.63 | — ((-) = >20 μg/mL) | — ((-) = >20 μg/mL) | — ((-) = >20 μg/mL) | 15 µg/mL | — ((-) = >20 μg/mL) | — ((-) = >20 μg/mL) | 5.5 µg/mL | — ((-) = >20 μg/mL) | 20 µg/mL | 
8 | COc1ccc([S+]([O-])c2cc3ccccc3[n+](CCCCCc3ccccc3)c2)cc1.[I-] (stereo not shown) [XYZ-V-21] | 7.00 | — ((-) = >20 μg/mL) | 20 | — ((-) = >20 μg/mL) | — ((-) = >20 μg/mL) | — ((-) = >20 μg/mL) | — ((-) = >20 μg/mL) | — ((-) = >20 μg/mL) | — ((-) = >20 μg/mL) | — ((-) = >20 μg/mL) | — ((-) = >20 μg/mL) | — ((-) = >20 μg/mL) | 
9 | Fc1ccccc1Sc1cc2ccccc2[n+](CCCCCc2ccccc2)c1.[I-] [XYZ-IV-19] | 0.40 | 5.0 µg/mL | 0.63 | 0.20 µg/mL | — ((-) = >20 μg/mL) | 0.31 µg/mL | 2.5 µg/mL | 20 µg/mL | 10 µg/mL | 0.25 µg/mL | 2.5 µg/mL | 0.63 µg/mL | 
10 | C[n+]1cc(Nc2cccc(Cl)c2)cc2ccccc21.[I-] [JRE-2-81-1] |  |  |  |  |  |  |  |  |  |  |  |  | MRSA IC50 (MRSA; Table 2): — ((-) = >20 μg/mL); MRSA MFC (MRSA; Table 2): — ((-) = >20 μg/mL); MRSA MIC (MRSA; Table 2): — ((-) = >20 μg/mL); A fu IC50 ([1]; Table 2, Aspergillus fumigatus): — ((-) = >20 μg/mL); Ca IC50 ([2]; Table 2): — ((-) = >20 μg/mL); Ca MFC ([2]; Table 2): — ((-) = >20 μg/mL); Ca MIC ([2]; Table 2): — ((-) = >20 μg/mL); Cn IC50 ([3]; Table 2): — ((-) = >20 μg/mL); Cn MFC ([3]; Table 2): — ((-) = >20 μg/mL); Cn MIC ([3]; Table 2): — ((-) = >20 μg/mL)
11 | [I-].[O-][S+](c1cc2ccccc2[n+](CCCCCc2ccccc2)c1)c1ccccc1F (stereo not shown) [XYZ-IV-100] | 1.5 | — ((-) = >20 μg/mL) | 5.0 | — ((-) = >20 μg/mL) | — ((-) = >20 μg/mL) | — ((-) = >20 μg/mL) | — ((-) = >20 μg/mL) | — ((-) = >20 μg/mL) | — ((-) = >20 μg/mL) |  | — ((-) = >20 μg/mL) | — ((-) = >20 μg/mL) | 
12 | Fc1cccc(Sc2cc3ccccc3[n+](CCCCCc3ccccc3)c2)c1.[I-] [XYZ-IV-21] | 0.20 | 20 µg/mL | 0.63 | 0.10 µg/mL | — ((-) = >20 μg/mL) | 0.16 µg/mL | 3.0 µg/mL | 20 µg/mL | 10 µg/mL | 0.40 µg/mL | 2.5 µg/mL | 0.63 µg/mL | 
